In patent US20210238197A1, “NOVEL OXOQUINOLIZINE COMPOUNDS FOR THE TREATMENT AND PROPHYLAXIS OF BACTERIAL INFECTION” (Hoffmann-La Roche Inc., priority 2018, published 2021):
In brackets after ≈: the same amount, converted by molar mass. Like-named read-outs stand apart in the source and are kept apart here.

What was measured:
[1] = Cytotoxicity assay (HepG2, CellTiter-Blue); type: cell-based; conditions: human; HepG2 cells, 3 days treatment; >100 = detection limit
Protocol: The cytotoxicity of compounds of present invention was assessed by HepG2 assay. HepG2 cells (ATCC RB-8065™) were seeded into 96-well plates (1.2×10^4 cells per well) and treated with compounds for 3 days, cell viability was measured at day 3 post compound treatment using the CellTiter-Blue® Cell Viability Assay (Promega, Cat. No. G8082). […], of Cell titer blue buffer were added to each well of the cells, which were incubated for 3 hours at 37° C., and the fluorescence value was measured by a plate reader (Molecular Device SpectraMax M2). The CC50 value of each compound is plotted with GraphPad Prism using four parameter logistic equation.

[2] = test system: multiple species and strains; test: microbe, parasite or virus in culture; design: MIC S9 / MIC S7 / MIC S11 / MIC S8 / MIC S10: unit not given beside the values; conditions: for MIC S9: E. coli ATCC 35218
Protocol: The MIC of antibacterial compounds against multiple species and strains was determined using the broth microdilution method according to M07-A10 Clinical and Laboratory Standards Institute (CLSI) guidelines (CLSI (2015) Methods for dilution antimicrobial susceptibility tests for bacteria that grow aerobically; Approved Standard, Tenth Edition. CLSI Document M7-A10 (ISBN 1-56238-987-4). Wayne, Pa.: Clinical and Laboratory Standards Institute, 19087, USA.). In short, bacterial strain preparation was performed on D1 and D2. […] 5-10 well-isolated colonies of similar morphology were selected and re-streaked onto fresh agar plates using sterile loops and incubated for 20-24 hr at 35±2° C. Bacterial strains were subcultured two times to ensure fresh inoculums for MIC screening. […] Alternatively, 1-2 colonies were transferred into 500 μL of saline and OD600 was adjusted to ˜0.1 using an OD meter. Bacterial inoculum was diluted by 1:280 for Gram-positive strains and 1:400 for Gram-negative strains into corresponding medium broth (CAMHB, CAMHB+3% lysed horse blood, HTM) (e.g. 35.6 μL of inoculum into 10 mL of CAMHB or 25 μL of inoculum into 10 mL of CAMHB). For compound plate, the compound stock solutions were prepared in 100% DMSO on the day of MIC screening and used immediately. Compound stock concentration=[(highest testing concentration)×100 μL/2 μL] (e.g. if the required highest testing concentration is 64 μg/mL in assay plates, stock concentration=64 μg/mL×100 μL/2 μL=3.2 mg/mL). […] 1 μL of each well was transferred in a new MTP, which served as the test plate by subsequent inoculation. The bacterial suspension prepared above is dispensed at 98 μL/well within 15 minutes after preparation. Negative controls (lack of bacterial cells) and growth control wells (lack of compound) were included in all plates. MTPs were incubated for 18-24 hours at 35±2° C. in ambient air. The MIC was recorded and CFUs were calculated on Day 4. The assay plate was placed on the top of MIC reader, and the magnification mirror was adjusted to read each wells, recording growth status as raw data. Photo images of each assay plates were recorded using Q Count 530 (Spiral Biotech). The MIC value of each compound, expressed as μg/mL, was determined as the lowest concentration required for complete growth inhibition (no visible growth).

A. baumannii (ATCC17978) = test: 50% growth inhibitory concentration (IC50) determination assay, A. baumannii; type: cell-based; conditions: Acinetobacter baumannii, ATCC17978; Iso-Sensitest broth, growth by OD 600 nm over 16 h; <0.098 = detection limit
Protocol: (§1) The in vitro antimicrobial activity of the compounds against S. aureus (ATCC29213), K. pneumoniae (ATCC10031), and A. baumannii (ATCC17978), was determined according to the following procedure: The assay used a 10-points Iso-Sensitest broth medium to measure quantitatively the in vitro activity of the compounds against S. aureus ATCC29213, K. pneumoniae ATCC 10031, and A. baumannii ATCC17978. Stock compounds in DMSO were serially two-fold diluted (range from 50 to 0.097 μM final concentration) in 384 wells microtiter plates and inoculated with 49 μL the bacterial suspension in Iso-Sensitest broth medium to have a final cell concentration of ˜5×10^5 CFU/mL in a final volume/well of 50 μL/well. Microtiter plates were incubated at 35±2° C. Bacterial cell growth was determined with the measurement of optical density at λ=600 nm each 20 minutes over a time course of 16 h.

S. aureus (ATCC29213) = test: 50% growth inhibitory concentration (IC50) determination assay, S. aureus; type: cell-based; conditions: Staphylococcus aureus, ATCC29213; Iso-Sensitest broth, growth by OD 600 nm over 16 h; <0.098 = detection limit
Protocol: as §1

[3] = test system: K. pneumoniae (ATCC10031); test: 50% growth inhibitory concentration (IC50) determination assay, K. pneumoniae; type: cell-based; conditions: Klebsiella pneumoniae, ATCC10031; Iso-Sensitest broth, growth by OD 600 nm over 16 h; <0.098 = detection limit
Protocol: as §1

[4] = Acinetobacter baumannii, ATCC19606, read-out: MIC S1, A. baumannii ATCC 19606
[5] = Acinetobacter baumannii, ATCC51432, read-out: MIC S2, A. baumannii ATCC 51432
[6] = Acinetobacter baumannii, ATCCBAA747, read-out: MIC S3, A. baumannii ATCC BAA-747
[7] = Escherichia coli, ATCC25922, read-out: MIC S11, E. coli ATCC 25922
[8] = Escherichia coli, ATCCBAA2340, read-out: MIC S10, E. coli ATCC BAA-2340
[9] = Klebsiella pneumoniae, ATCC10031, read-out: MIC S4, K. pneumoniae ATCC 10031
[10] = Klebsiella pneumoniae, ATCC700603, read-out: MIC S5, K. pneumoniae ATCC 700603
[11] = Klebsiella pneumoniae, ATCCBAA2146, read-out: MIC S6, K. pneumoniae ATCC BAA-2146
[12] = Pseudomonas aeruginosa, ATCC27853, read-out: MIC S7, P. aeruginosa ATCC 27853
[13] = Pseudomonas aeruginosa, ATCCBAA2113, read-out: MIC S8, P. aeruginosa ATCC BAA-2113

Structure (SMILES)	CC50 at 3 days [1] [nM]	MIC [2, 4] [µg/mL]	MIC [2, 5] [µg/mL]	MIC [2, 6] [µg/mL]	MIC S9 [2]	MIC [2, 7] [µg/mL]	MIC [2, 8] [µg/mL]	MIC [2, 9] [µg/mL]	MIC [2, 10] [µg/mL]	MIC [2, 11] [µg/mL]	MIC [2, 12] [µg/mL]	MIC [2, 13] [µg/mL]	IC50 (A. baumannii (ATCC17978)) [nM]	IC50 (S. aureus (ATCC29213)) [nM]	IC50 [3] [nM]
CNc1cc(F)c(Cl)c2c1[nH]c1ncc(-c3ccc4ccc(C(=O)O)c(=O)n4c3)c(N3CC[C@@]4(C[C@@H]4N)C3)c12 (single isomer, unassigned) [Example 5.01A]	> 100000	1.03 (≈ 1.88 µM)	1.03 (≈ 1.88 µM)	1.03 (≈ 1.88 µM)	0.516	0.194 (≈ 0.355 µM)	0.516 (≈ 0.943 µM)	0.032 (≈ 0.0585 µM)	2.07 (≈ 3.78 µM)	4.13 (≈ 7.55 µM)	2.07 (≈ 3.78 µM)	2.07 (≈ 3.78 µM)			
CNc1cc(F)cc2c1[nH]c1ncc(-c3ccc4ccc(C(=O)O)c(=O)n4c3)c(N3CCOCC3)c12 [Example 1.02, 7-(6-fluoro-8-(methylamino)-4-morpholino-9H-pyrido[2,3-b]indol-3-yl)-4-oxo-4H-quinolizine-3-carboxylic acid]	24100												< 98	159	< 98
CNc1cc(F)c(C#N)c2c1[nH]c1ncc(-c3ccc4ccc(C(=O)O)c(=O)n4c3)c(N3CC4C(N(C)C)CO[C@@H]4C3)c12 (stereo partly drawn) [Example 1.15, 7-[5-cyano-4-[cis-3-(dimethylamino)-2,3,3a,4,6,6a-hexahydrofuro[2,3-c]pyrrol-5-yl]-6-fluoro-8-(methylamino)-9H-pyrido[2,3-b]indol-3-yl]-4-oxo-quinolizine-3-carboxylic acid]	75400												< 98	103	< 98
CNc1cc(F)c(F)c2c1[nH]c1ncc(-c3ccc4ccc(C(=O)O)c(=O)n4c3)c(N3CC[C@@H]4CCN(C)[C@@H]4C3)c12 [Example 3.04B, 7-[4-[(3aS,7aS)-1-methyl-3,3a,4,5,7,7a-hexahydro-2H-pyrrolo[2,3-c]pyridin-6-yl]-5,6-difluoro-8-(methylamino)-9H-pyrido[2,3-b]indol-3-yl]-4-oxo-quinolizine-3-carboxylic acid]	10800	0.436 (≈ 0.781 µM)	0.436 (≈ 0.781 µM)	0.436 (≈ 0.781 µM)	0.436	0.164 (≈ 0.294 µM)	1.75 (≈ 3.13 µM)	0.027 (≈ 0.0483 µM)	1.75 (≈ 3.13 µM)	1.75 (≈ 3.13 µM)	0.873 (≈ 1.56 µM)	1.75 (≈ 3.13 µM)	< 98	< 98	< 98
CNc1cc(F)c(F)c2c1[nH]c1ncc(-c3ccc4ccc(C(=O)O)c(=O)n4c3)c(N3CC[C@@]4(C[C@H]4N)C3)c12 [Example 4.01B, 7-(4-((1R,3R)-1-amino-5-azaspiro[2.4]heptan-5-yl)-5,6-difluoro-8-(methylamino)-9H-pyrido[2,3-b]indol-3-yl)-4-oxo-4H-quinolizine-3-carboxylic acid]	> 100000												< 98	< 98	< 98
CNc1cc(F)c(F)c2c1[nH]c1ncc(-c3ccc4ccc(C(=O)O)c(=O)n4c3)c(N3CC[C@]4(C[C@H]4N)C3)c12 [Example 4.01C, 7-(4-((1R,3S)-1-amino-5-azaspiro[2.4]heptan-5-yl)-5,6-difluoro-8-(methylamino)-9H-pyrido[2,3-b]indol-3-yl)-4-oxo-4H-quinolizine-3-carboxylic acid]	> 100000	0.592 (≈ 1.12 µM)	0.592 (≈ 1.12 µM)	1.19 (≈ 2.24 µM)	0.592	0.222 (≈ 0.418 µM)	1.19 (≈ 2.24 µM)	0.074 (≈ 0.139 µM)	2.37 (≈ 4.47 µM)	2.37 (≈ 4.47 µM)	1.19 (≈ 2.24 µM)	2.37 (≈ 4.47 µM)	< 98	< 98	< 98
CNc1cc(F)c(F)c2c1[nH]c1ncc(-c3ccc4ccc(C(=O)O)c(=O)n4c3)c(N3CC[C@]4(C[C@@H]4N)C3)c12 [Example 4.01D, 7-(4-((1S,3S)-1-amino-5-azaspiro[2.4]heptan-5-yl)-5,6-difluoro-8-(methylamino)-9H-pyrido[2,3-b]indol-3-yl)-4-oxo-4H-quinolizine-3-carboxylic acid]	> 100000	0.592 (≈ 1.12 µM)	1.19 (≈ 2.24 µM)	1.19 (≈ 2.24 µM)	1.186	0.111 (≈ 0.209 µM)	0.592 (≈ 1.12 µM)	0.037 (≈ 0.0697 µM)	4.74 (≈ 8.94 µM)	4.74 (≈ 8.94 µM)	1.19 (≈ 2.24 µM)	2.37 (≈ 4.47 µM)	< 98	< 98	< 98
CNc1cc(F)c(Cl)c2c1[nH]c1ncc(-c3ccc4ccc(C(=O)O)c(=O)n4c3)c(N3CC[C@]4(C[C@H]4N)C3)c12 [Example 5.01B, 7-(4-((1R,3S)-1-amino-5-azaspiro[2.4]heptan-5-yl)-5-chloro-6-fluoro-8-(methylamino)-9H-pyrido[2,3-b]indol-3-yl)-4-oxo-4H-quinolizine-3-carboxylic acid]	> 100000	0.516 (≈ 0.943 µM)	1.03 (≈ 1.88 µM)	1.03 (≈ 1.88 µM)	0.516	0.097 (≈ 0.177 µM)	0.516 (≈ 0.943 µM)	0.032 (≈ 0.0585 µM)	4.13 (≈ 7.55 µM)	4.13 (≈ 7.55 µM)	2.07 (≈ 3.78 µM)	2.07 (≈ 3.78 µM)			
CNc1cc(F)c(Cl)c2c1[nH]c1ncc(-c3ccc4ccc(C(=O)O)c(=O)n4c3)c(N3CC[C@@]4(C[C@H]4N)C3)c12 [Example 5.01C, 7-(4-((1R,3R)-1-amino-5-azaspiro[2.4]heptan-5-yl)-5-chloro-6-fluoro-8-(methylamino)-9H-pyrido[2,3-b]indol-3-yl)-4-oxo-4H-quinolizine-3-carboxylic acid]	> 100000	0.516 (≈ 0.943 µM)	0.258 (≈ 0.472 µM)	0.516 (≈ 0.943 µM)	0.258	0.194 (≈ 0.355 µM)	0.258 (≈ 0.472 µM)	0.032 (≈ 0.0585 µM)	2.07 (≈ 3.78 µM)	2.07 (≈ 3.78 µM)	1.03 (≈ 1.88 µM)	2.07 (≈ 3.78 µM)	< 98	< 98	< 98
